Each block holds one molecule with its values, some of them ahead of it.
Columns and labels:
D3R [1] = target: T1, D3R (Homo sapiens, UniProt P35462); test: Radioligand binding at D3R; conditions: for D3R selectivities versus the other dopamine receptors tested: versus D1R, D2R, D4R, D5R
D3R [2] = target: T1, D3R; conditions: flexible n-butyl linker compound from previous study; ref [19]; cited from earlier work

T1 sequence (P35462 whole entry): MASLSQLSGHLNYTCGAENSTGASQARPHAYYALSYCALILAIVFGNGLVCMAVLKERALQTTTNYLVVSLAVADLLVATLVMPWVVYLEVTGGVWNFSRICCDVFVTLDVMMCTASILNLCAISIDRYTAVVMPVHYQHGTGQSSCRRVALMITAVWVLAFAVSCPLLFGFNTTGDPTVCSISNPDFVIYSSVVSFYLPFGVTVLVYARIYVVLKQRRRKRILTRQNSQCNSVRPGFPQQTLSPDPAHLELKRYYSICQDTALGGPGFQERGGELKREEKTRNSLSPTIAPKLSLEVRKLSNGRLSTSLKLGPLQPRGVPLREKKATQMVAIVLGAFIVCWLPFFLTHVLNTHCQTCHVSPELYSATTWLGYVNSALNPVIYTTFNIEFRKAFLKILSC

SMILES: O=C(NCc1ccccc1CN1CCc2cc(O)c(O)cc2C1)c1cccc(Br)c1 [6a]
D3R selectivity versus D1R, D2R and D4R (D3R [1]): < 50 fold

SMILES: COc1cc2c(cc1OC)CN(Cc1ccccc1CNC(=O)c1ccc(C#N)cc1)CC2 [5t]
D3R selectivities versus the other dopamine receptors tested (D3R [1]): 15- to 420 fold

SMILES: COc1cc2c(cc1O)CN(CCCCNC(=O)c1ccc(C#N)cc1)CC2 [compound 1]
selectivity for D3R over σ2R (D3R [2]): good selectivity

Further lines, results first:

D3R selectivity versus D4R (D3R [1]; ratio of Ki values): > 100 fold
SMILES: COc1cc2c(cc1O)CN(Cc1ccccc1CNC(=O)c1cccc(C#N)c1)CC2 [5i]

D3R selectivities versus the other dopamine receptors tested (D3R [1]): 15- to 420 fold
SMILES: COc1cc2c(cc1OC)CN(Cc1ccccc1CNC(=O)c1cccc(C#N)c1)CC2 [5s]

— publication PMC8165021 (Bioorganic & medicinal chemistry letters, 2021)
